Experimental data taken from patent US20240383852A1, “ANTI-VIRAL COMPOUNDS” (INFEX Therapeutics Limited, priority 2021, published 2024).
Structures can show the parent of a compound that is named as a salt.

Key:
[1] = system: human Hep G2 cells (ATCC HB-8065); assay: Cytotoxicity in Hep G2 cells (CellTiter-Glo); type: cell-based; conditions: Hep G2 cells, 100 μM test article, 24-hour exposure
SARS-CoV-2 PLpro = biological target: T1, SARS-CoV-2 PLpro (Severe acute respiratory syndrome coronavirus 2, UniProt P0DTD1); assay: biochemical; conditions: 60 nM papain-like protease, 50 μM Z-RLRGG-AMC, pH 7.5, 37° C.; read-out: SARS-CoV-2 PLpro IC50
T1 construct: containing 60 nM papain-like protease

SMILES	% Cell Viability [1]	IC50 (SARS-CoV-2 PLpro)
Cc1ccc(N2CCN(C)CC2)cc1C(=O)N[C@H](C)c1cccc(-c2cccc(C(N)=O)c2)c1 [Example 43, N-[(1R)-1-[3-(3-Carbamoylphenyl)phenyl]ethyl]-2-methyl-5-(4-methylpiperazin-1-yl)benzamide]	71.3%	< 2 µM
Cc1ccc(N2CCN(C)CC2)cc1C(=O)N[C@H](C)c1cccc(-c2cccc(CCO)c2)c1 [Example 44, N-[(1R)-1-[3-[3-(2-Hydroxyethyl)phenyl]phenyl]ethyl]-2-methyl-5-(4-methylpiperazin-1-yl)benzamide]	61.0%	< 2 µM
Cc1ccc(N2CCN(C)CC2)cc1C(=O)N[C@H](C)c1cccc(-c2cccc(C(C)(C)O)c2)c1 [Example 45, N-[(1R)-1-[3-[3-(1-Hydroxy-1-methyl-ethyl)phenyl]phenyl]ethyl]-2-methyl-5-(4-methylpiperazin-1-yl)benzamide]	59.5%	< 2 µM
CNC(=O)c1cccc(-c2cccc([C@@H](C)NC(=O)c3cc(N4CCN(C)CC4)ccc3C)c2)c1 [Example 46, 2-Methyl-N-[(1R)-1-[3-[3-(methylcarbamoyl)phenyl]phenyl]ethyl]-5-(4-methylpiperazin-1-yl)benzamide]	86.9%	< 2 µM
Cc1ccc(N2CCN(C)CC2)cc1C(=O)N[C@H](C)c1cccc(-c2cccc(C(=O)N(C)C)c2)c1 [Example 47, N-[(1R)-1-[3-[3-(Dimethylcarbamoyl)phenyl]phenyl]ethyl]-2-methyl-5-(4-methylpiperazin-1-yl)benzamide]	54.0%	< 2 µM
Cc1ccc(N2CCN(C)CC2)cc1C(=O)N[C@H](C)c1cccc(-c2ccc(=O)n(C)c2)c1 [Example 48, 2-Methyl-N-[(1R)-1-[3-(1-methyl-6-oxo-3-pyridyl)phenyl]ethyl]-5-(4-methylpiperazin-1-yl)benzamide]	63.6%	< 5 µM
Cc1ccc(N2CCN(C)CC2)cc1C(=O)N[C@H](C)c1cccc(-c2cc[nH]n2)c1 [Example 49, 2-Methyl-5-(4-methylpiperazin-1-yl)-N-[(1R)-1-[3-(1H-pyrazol-3-yl)phenyl]ethyl]benzamide]	82.7%	< 2 µM
Cc1ccc(N2CCN(C)CC2)cc1C(=O)N[C@H](C)c1cccc(-c2ccsc2)c1 [Example 50, 2-Methyl-5-(4-methylpiperazin-1-yl)-N-[(1R)-1-[3-(3-thienyl)phenyl]ethyl]benzamide]	2.3%	< 2 µM
Cc1ccc(N2CCN(C)CC2)cc1C(=O)N[C@H](C)c1cccc(-c2cccc(CS(C)(=O)=O)c2)c1 [Example 52, 2-Methyl-5-(4-methylpiperazin-1-yl)-N-[(1R)-1-[3-[3 (methylsulfonylmethyl)phenyl]phenyl]ethyl]benzamide]	49.0%	< 2 µM
Cc1ccc(N2CCN(C)CC2)cc1C(=O)N[C@H](C)c1cccc(-c2cnn(C)c2)c1 [Example 53, 2-Methyl-5-(4-methylpiperazin-1-yl)-N-[(1R)-1-[3-(1-methylpyrazol-4-yl)phenyl]ethyl]benzamide]	82.4%	< 2 µM
Cc1ccc(N2CCN(C)CC2)cc1C(=O)N[C@H](C)c1ccc(-c2ccc(CO)cc2)cc1 [Example 54, N-[(1R)-1-[4-[4-(Hydroxymethyl)phenyl]phenyl]ethyl]-2-methyl-5-(4-methylpiperazin-1-yl)benzamide]	76.0%	< 10 µM
Cc1ccc(N2CCN(C)CC2)cc1C(=O)N[C@H](C)c1cccc(-c2ccc(Cl)cc2)c1 [Example 55, N-[(1R)-1-[3-(4-Chlorophenyl)phenyl]ethyl]-2-methyl-5-(4-methylpiperazin-1-yl)benzamide]	1.0%	< 2 µM
Cc1ccc(N2CCN(C)CC2)cc1C(=O)N[C@H](C)c1cccc(-c2ccc(CO)cc2)c1 [Example 56, N-[(1R)-1-[3-[4-(Hydroxymethyl)phenyl]phenyl]ethyl]-2-methyl-5-(4-methylpiperazin-1-yl)benzamide]	75.1%	< 2 µM
Cc1ccc(N2C[C@H]3C[C@@H]2CN3C)cc1C(=O)N[C@H](C)c1cccc(-c2cccc(C(C)(C)O)c2)c1 [Example 57, N-[(1R)-1-[3-[3-(1-Hydroxy-1-methyl-ethyl)phenyl]phenyl]ethyl]-2-methyl-5-[(1R,4R)-5-methyl-2,5-diazabicyclo[2.2.1]heptan-2-yl]benzamide]	0.9%	< 2 µM
Cc1ccc(N2CCN(C)CC2)cc1C(=O)N[C@H](C)c1cccc(-c2c(C)n[nH]c2C)c1 [Example 58, N-[(1R)-1-[3-(3,5-Dimethyl-1H-pyrazol-4-yl)phenyl]ethyl]-2-methyl-5-(4-methylpiperazin-1-yl)benzamide]	86.7%	< 2 µM
Cc1ccc(N2CCN(C)CC2)cc1C(=O)N[C@H](C)c1cccc(-c2cncnc2)c1 [Example 59, 2-Methyl-5-(4-methylpiperazin-1-yl)-N-[(1R)-1-(3-pyrimidin-5-ylphenyl)ethyl]benzamide]	86.0%	< 10 µM
Cc1ccc(N2CCN(C)CC2)cc1C(=O)N[C@H](C)c1cccc(-c2c(C)nn(C)c2C)c1 [Example 62, 2-Methyl-5-(4-methylpiperazin-1-yl)-N-[(1R)-1-[3-(1,3,5-trimethylpyrazol-4-yl)phenyl]ethyl]benzamide]	56.6%	< 2 µM
Cc1ccc(N2CCN(C)CC2)cc1C(=O)N[C@H](C)c1cccc(-c2cnc(N)nc2)c1 [Example 63, N-[(1R)-1-[3-(2-Aminopyrimidin-5-yl)phenyl]ethyl]-2-methyl-5-(4-methylpiperazin-1-yl)benzamide]	75.6%	< 2 µM
Cc1ccc(N2CCN(C)CC2)cc1C(=O)N[C@H](C)c1cccc(-c2nccs2)c1 [Example 65, 2-Methyl-5-(4-methylpiperazin-1-yl)-N-[(1R)-1-(3-thiazol-2-ylphenyl)ethyl]benzamide]	77.6%	< 2 µM
Cc1ccc(N2CCN(C)CC2)cc1C(=O)N[C@H](C)c1cccc(-c2ccc(=O)[nH]c2)c1 [Example 66, 2-Methyl-5-(4-methylpiperazin-1-yl)-N-[(1R)-1-[3-(6-oxo-1,6-dihydropyridin-3-yl)phenyl]ethyl]benzamide]	100.8%	< 2 µM
Cc1ccc(N2CCN(C)CC2)cc1C(=O)N[C@H](C)c1cccc(-c2ccc(N)nc2)c1 [Example 67, N-[(1R)-1-[3-(6-Amino-3-pyridyl)phenyl]ethyl]-2-methyl-5-(4-methylpiperazin-1-yl)benzamide]	58.7%	< 2 µM
Cc1ccc(N2CCN(C)CC2)cc1C(=O)N[C@H](C)c1cccc(-c2cccc(CN(C)C)c2)c1 [Example 68, N-[(1R)-1-[3-[3-[(Dimethylamino)methyl]phenyl]phenyl]ethyl]-2-methyl-5-(4-methylpiperazin-1-yl)benzamide Dihydrochloride Salt]	48.9%	< 2 µM
Cc1ccc(N2CCN(C)CC2)cc1C(=O)N[C@H](C)c1cccc(C(O)CO)c1 (stereo partly drawn) [Example 69, N-[(1R)-1-[3-(1,2-Dihydroxyethyl)phenyl]ethyl]-2-methyl-5-(4-methylpiperazin-1-yl)benzamide]	107.0%	< 10 µM
Cc1ccc(N2CCN(C)CC2)cc1C(=O)N[C@H](C)c1cccc(-c2ccc(C(O)CO)cc2)c1 (stereo partly drawn) [Example 70, N-[(1R)-1-[3-[4-(1,2-Dihydroxyethyl)phenyl]phenyl]ethyl]-2-methyl-5-(4-methylpiperazin-1-yl)benzamide]	59.1%	< 2 µM
Cc1ccc(N2CCN(C)CC2)cc1C(=O)N[C@H](C)c1cccc(-c2cccc(C(O)CO)c2)c1 (stereo partly drawn) [Example 71, N-[(1R)-1-[3-[3-(1,2-Dihydroxyethyl)phenyl]phenyl]ethyl]-2-methyl-5-(4-methylpiperazin-1-yl)benzamide]	68.4%	< 2 µM
Cc1ccc(N2CCN(C)CC2)cc1C(=O)N[C@H](C)c1cccc(-c2ccc(N3CCNCC3)cc2)c1 [Example 73, 2-Methyl-5-(4-methylpiperazin-1-yl)-N-[(1R)-1-[3-(4-piperazin-1-ylphenyl)phenyl]ethyl]benzamide dihydrochloride salt]	0.6%	< 2 µM
Cc1ccc(N2CCN(C)CC2)cc1C(=O)N[C@H](C)c1cccc(-c2cccc(N3CCNCC3)c2)c1 [Example 74, 2-Methyl-5-(4-methylpiperazin-1-yl)-N-[(1R)-1-[3-(3-piperazin-1-ylphenyl)phenyl]ethyl]benzamide]	0.6%	< 2 µM
CNCCN(C)C(=O)c1ccc(-c2cccc([C@@H](C)NC(=O)c3cc(N4CCN(C)CC4)ccc3C)c2)cc1 [Example 75, 2-Methyl-N-[(1R)-1-[3-[4-[methyl-[2-(methylamino)ethyl]carbamoyl]phenyl]phenyl]ethyl]-5-(4-methylpiperazin-1-yl)benzamide]	123.6%	< 2 µM
Cc1ccc(N2CCN(C)CC2)cc1C(=O)N[C@H](C)c1cccc(-c2cccc(=O)[nH]2)c1 [Example 76, 2-Methyl-5-(4-methylpiperazin-1-yl)-N-[(1R)-1-[3-(6-oxo-1H-pyridin-2-yl)phenyl]ethyl]benzamide]	81.2%	< 2 µM
Cc1ccc(N2CCN(C)CC2)cc1C(=O)N[C@H](C)c1cccc(-c2ccc(C3CCNCC3)cc2)c1 [Example 77, 2-Methyl-5-(4-methylpiperazin-1-yl)-N-[(1R)-1-[3-[4-(4-piperidyl)phenyl]phenyl]ethyl]benzamide]	1.0%	< 2 µM
